From ChEMBL document CHEMBL1201862, “PubChem BioAssay data set” (2004)
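Growth conditions: 96-well plates. Treatment: test compound, 48 hours, 5 concentrations. Analysis: linear interpolation between bracketing concentrations; unreached endpoints set to highest concentration. GI50 is the concentration that inhibits growth by half.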 The source made the active and inactive calls. Cut-off read from the data, not from the text of the source: active = GI50 up to about 1.1 µM and inactive = higher.

Legend:
Experiment in all cases: growth of human tumour cells (NCI), 48 h
786-0 = test system: 786-0
DU-145 = test system: DU-145
EKVX = test system: EKVX
HOP-62 = test system: HOP-62
HOP-92 = test system: HOP-92
LOX IMVI = test system: LOX IMVI
MOLT-4 = test system: MOLT-4
Malme-3M = test system: Malme-3M
NCI-H23 = test system: NCI-H23
NCI-H522 = test system: NCI-H522
OVCAR-3 = test system: OVCAR-3
OVCAR-5 = test system: OVCAR-5
PC-3 = test system: PC-3
SK-MEL-28 = test system: SK-MEL-28
SNB-19 = test system: SNB-19
U-251 = test system: U-251
UO-31 = test system: UO-31
MCF7 = test system: MCF7
CAKI-1 = test system: CAKI-1

Measured: GI50

COc1ccc(N2C(=O)c3cc(C)cnc3S2(=O)=O)cc1
inactive: 786-0 > 100 µM | DU-145 > 100 µM | EKVX > 100 µM | HOP-62 > 100 µM | HOP-92 > 100 µM | LOX IMVI > 100 µM | MOLT-4 > 100 µM | Malme-3M > 100 µM | NCI-H23 > 100 µM | NCI-H522 > 100 µM | OVCAR-3 > 100 µM | OVCAR-5 > 100 µM | PC-3 > 100 µM | SK-MEL-28 > 100 µM | SNB-19 > 100 µM | U-251 > 100 µM | UO-31 > 100 µM

O=C(ON=c1c2ccccc2ccc2ccccc12)c1cc([N+](=O)[O-])cc([N+](=O)[O-])c1
inactive: 786-0 > 100 µM | DU-145 97.3 µM | EKVX 89.9 µM | HOP-62 > 100 µM | HOP-92 23.1 µM | LOX IMVI 90.2 µM | MCF7 65 µM | MOLT-4 31.8 µM | Malme-3M 16.8 µM | NCI-H23 > 100 µM | OVCAR-3 94.6 µM | OVCAR-5 > 100 µM | PC-3 41.8 µM | SK-MEL-28 > 100 µM | SNB-19 > 100 µM | U-251 70.6 µM | UO-31 48 µM

O=C1C2C3CCC(C2C(=O)N1CO)C1C2C(=O)N(CO)C(=O)C2C31 (configuration not stated)
inactive: 786-0 43.3 µM | CAKI-1 > 96.6 µM | EKVX > 100 µM | HOP-62 > 100 µM | HOP-92 > 63.1 µM | LOX IMVI 37.5 µM | MOLT-4 25.1 µM | Malme-3M > 100 µM | NCI-H23 > 87.9 µM | NCI-H522 65.9 µM | OVCAR-3 > 100 µM | OVCAR-5 > 100 µM | SK-MEL-28 > 58.9 µM | SNB-19 > 100 µM | U-251 > 40.3 µM | UO-31 > 100 µM

NC(=S)N/N=c1\cc(C(=O)Nc2ccc([N+](=O)[O-])cc2[N+](=O)[O-])oc2ccccc12
inactive: 786-0 > 100 µM | CAKI-1 75.2 µM | DU-145 > 100 µM | EKVX 49.8 µM | HOP-62 > 100 µM | HOP-92 43.5 µM | LOX IMVI > 100 µM | MCF7 > 100 µM | MOLT-4 > 100 µM | NCI-H23 > 100 µM | NCI-H522 > 100 µM | OVCAR-3 85.5 µM | OVCAR-5 > 100 µM | PC-3 > 100 µM | SK-MEL-28 > 100 µM | SNB-19 > 100 µM | U-251 > 100 µM | UO-31 29.8 µM

Cc1cn(Cc2ccccc2CCO)c(=S)[nH]c1=O
inactive: 786-0 > 100 µM | CAKI-1 > 100 µM | EKVX > 100 µM | HOP-62 > 100 µM | HOP-92 > 100 µM | LOX IMVI > 100 µM | MOLT-4 > 100 µM | Malme-3M > 100 µM | NCI-H23 > 100 µM | NCI-H522 > 100 µM | OVCAR-3 > 100 µM | OVCAR-5 > 100 µM | SK-MEL-28 > 100 µM | SNB-19 > 100 µM | U-251 > 100 µM | UO-31 > 100 µM

CCOC1NC(/N=C/c2ccc(OC)cc2)=C(C#N)C1C#N (configuration not stated)
inactive: 786-0 > 100 µM | CAKI-1 > 100 µM | DU-145 > 100 µM | EKVX 92 µM | HOP-62 > 100 µM | LOX IMVI 44.6 µM | MCF7 > 100 µM | MOLT-4 92 µM | Malme-3M 90.8 µM | NCI-H23 46 µM | NCI-H522 19.3 µM | OVCAR-3 > 100 µM | OVCAR-5 87.5 µM | PC-3 46 µM | SK-MEL-28 > 100 µM | SNB-19 87.3 µM | U-251 > 100 µM | UO-31 > 100 µM
